# Data taken from ChEMBL document CHEMBL1201862, “PubChem BioAssay data set” (2004).
# Active and inactive are the calls of the source.
# Columns and labels:
# [1] = HIV-1 Vif–A3G interaction blockers – biochemical, TR-FRET, GST-Vif 1-94, biotin-A3G peptide, dose response retest, primary screen (AID 1117319); format: functional;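 also: TR-FRET signal of purified GST-Vif binding a biotinylated A3G peptide; inhibitors lower the FRET signal by blocking Vif and A3G binding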
# Streptococcus = experiment: GAS UMAA2166 growth inhibition – luminescence, BacTiterGlo, counter-screen for streptokinase expression inhibitor project, dose response (AID 1915); format: functional, organism-based;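 also: potency for reduction of bacterial viability or growth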
# [2] = HGIII-sPLA2 enzyme inhibition potency – biochemical, QFRET, IC50, dose response (AID 743457);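 also: green fluorescence rise as the enzyme cleaves BODIPY PC-A2 in liposomes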
# [3] = tested on: Streptococcus sp. 'group A'; experiment: Streptococcus pyogenes SK(-)GAS viability under kanamycin – luminescence, BacTiterGlo, confirmation, counter-screen for streptokinase expression inhibitor project, dose response (AID 1900); format: functional, organism-based
# [4] = blockers of bursicon-stimulated LGR2 cAMP reporter – cell-based, HEK293, CRE-luciferase reporter, cherry pick, set 2, dose response (AID 743343); format: functional;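 also: transfected cells were stimulated with diluted bursicon conditioned medium after compound addition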
# HEK293 = experiment: EBV LMP1 TES2 canonical NF-kB signalling blockers – cell-based, HEK293, luciferase, cherry-pick, dose response (AID 588343); format: functional; conditions: Homo sapiens
# [5] = blockade of melanocortin 4 receptor signaling – cell-based, plate reader, cherry pick, counter-screen for LGR2 antagonist project, dose response (AID 743444); format: functional;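 also: transfected HEK 293 cells stimulated with alpha-MSH peptide; potency of inhibitors of the alpha-MSH evoked signal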
# [6] = A549 cell cytotoxicity, dose response, cytotoxicity control, plate reader, cherry-pick, antagonist series (AID 743412); format: functional, cell-based
# [7] = target: T1, RNA-editing ligase 1, mitochondrial (Trypanosoma brucei brucei, UniProt P86926); experiment: inhibition of trypanosome RNA editing ligase – biochemical, fluorescence, Trypanosoma brucei, dose response (AID 1117295); format: functional
# T1 sequence (P86926 whole entry): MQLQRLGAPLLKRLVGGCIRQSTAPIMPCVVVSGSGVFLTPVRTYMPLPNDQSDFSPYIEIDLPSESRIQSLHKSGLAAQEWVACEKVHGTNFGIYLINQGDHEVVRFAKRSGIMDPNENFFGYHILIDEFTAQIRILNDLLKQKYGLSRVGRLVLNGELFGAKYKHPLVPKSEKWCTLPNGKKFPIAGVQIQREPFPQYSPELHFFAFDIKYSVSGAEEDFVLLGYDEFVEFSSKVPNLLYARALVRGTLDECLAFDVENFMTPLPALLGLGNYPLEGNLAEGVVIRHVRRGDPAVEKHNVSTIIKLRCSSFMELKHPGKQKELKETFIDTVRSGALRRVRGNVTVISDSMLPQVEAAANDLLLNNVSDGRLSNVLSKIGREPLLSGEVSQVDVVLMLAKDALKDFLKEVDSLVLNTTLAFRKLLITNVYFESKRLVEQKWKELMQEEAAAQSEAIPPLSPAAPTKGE
# Ephrin type-A receptor 4 = Ephrin type-A receptor 4 (Mus musculus, UniProt Q03137); experiment: EphA4 ligand-binding antagonists – biochemical, colorimetric, mouse EphA4, primary screen (AID 689); format: functional
# [8] = target: Luciferin 4-monooxygenase (Photinus pyralis, UniProt P08659); experiment: Counter Screen for Luciferase-based Assay Positives. [Related pubchem assays: 620, 618, 411 ]
# HT-1080 = experiment: HT1080 cell viability loss – fluorescence readout (AID 620); format: functional, cell-based; conditions: Homo sapiens
# Estrogen receptor beta = Estrogen receptor beta (Homo sapiens, UniProt Q92731);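 also: recombinant ER-beta bound to coactivator SRC1 peptide in presence of estradiol agonist; inhibitors block coactivator peptide binding and lower the FRET signal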
# Cytochrome P450 2D6 = Cytochrome P450 2D6 (Homo sapiens, UniProt P10635);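 also: CYP2D6 member of a cytochrome P450 panel assay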
# Cytochrome P450 3A4 = Cytochrome P450 3A4 (Homo sapiens, UniProt P08684);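 also: CYP3A4 tested as one member of a cytochrome P450 panel screen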
# Cytochrome P450 1A2 = target: T2, Cytochrome P450 1A2 (Homo sapiens, UniProt P05177);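 also: PubChem cytochrome P450 panel assay, CYP1A2 panel member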
# T2 sequence (P05177 whole entry): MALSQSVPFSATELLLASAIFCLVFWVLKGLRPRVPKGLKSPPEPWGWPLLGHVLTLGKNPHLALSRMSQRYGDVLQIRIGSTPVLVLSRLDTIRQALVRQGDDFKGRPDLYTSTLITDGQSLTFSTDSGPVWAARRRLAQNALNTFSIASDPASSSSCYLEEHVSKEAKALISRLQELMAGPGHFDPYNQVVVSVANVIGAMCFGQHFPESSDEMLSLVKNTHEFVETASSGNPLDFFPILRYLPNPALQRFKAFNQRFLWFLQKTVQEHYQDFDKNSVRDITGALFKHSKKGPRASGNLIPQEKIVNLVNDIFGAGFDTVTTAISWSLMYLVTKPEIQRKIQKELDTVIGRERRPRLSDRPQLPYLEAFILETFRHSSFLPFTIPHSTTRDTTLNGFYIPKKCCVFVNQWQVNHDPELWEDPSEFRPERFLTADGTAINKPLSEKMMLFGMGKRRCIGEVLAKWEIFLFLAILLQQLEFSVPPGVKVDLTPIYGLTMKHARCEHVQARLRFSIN
# Chain of Estrogen receptor beta (Q92731 whole entry): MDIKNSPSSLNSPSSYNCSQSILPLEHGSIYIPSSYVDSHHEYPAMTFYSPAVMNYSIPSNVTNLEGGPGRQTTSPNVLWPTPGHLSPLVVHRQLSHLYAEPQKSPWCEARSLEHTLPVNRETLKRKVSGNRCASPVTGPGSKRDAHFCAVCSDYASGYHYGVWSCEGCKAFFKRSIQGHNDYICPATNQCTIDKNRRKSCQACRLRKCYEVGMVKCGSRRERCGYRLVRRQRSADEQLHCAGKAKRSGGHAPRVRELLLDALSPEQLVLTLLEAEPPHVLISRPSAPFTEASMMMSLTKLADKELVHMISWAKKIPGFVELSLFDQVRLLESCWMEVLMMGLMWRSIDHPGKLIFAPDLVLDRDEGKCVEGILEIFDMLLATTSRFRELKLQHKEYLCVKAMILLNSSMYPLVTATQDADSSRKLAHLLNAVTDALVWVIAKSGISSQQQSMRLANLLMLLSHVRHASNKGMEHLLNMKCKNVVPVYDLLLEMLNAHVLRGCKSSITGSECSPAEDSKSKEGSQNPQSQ
# Chain of Luciferin 4-monooxygenase (P08659 whole entry): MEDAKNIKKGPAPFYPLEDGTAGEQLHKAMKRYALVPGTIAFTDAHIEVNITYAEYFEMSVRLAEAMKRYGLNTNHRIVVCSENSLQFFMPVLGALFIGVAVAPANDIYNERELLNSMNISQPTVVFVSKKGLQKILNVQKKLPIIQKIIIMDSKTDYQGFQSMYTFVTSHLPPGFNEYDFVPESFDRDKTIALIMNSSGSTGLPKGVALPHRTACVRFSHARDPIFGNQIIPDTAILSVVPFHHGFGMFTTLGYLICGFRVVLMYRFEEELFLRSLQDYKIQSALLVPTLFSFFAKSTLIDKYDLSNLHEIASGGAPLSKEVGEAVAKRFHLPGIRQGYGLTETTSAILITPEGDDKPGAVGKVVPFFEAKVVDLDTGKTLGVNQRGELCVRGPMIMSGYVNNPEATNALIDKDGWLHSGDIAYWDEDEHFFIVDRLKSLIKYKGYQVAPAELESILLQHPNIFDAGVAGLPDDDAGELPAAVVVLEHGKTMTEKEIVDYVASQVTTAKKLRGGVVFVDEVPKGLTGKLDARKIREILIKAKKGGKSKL
# Chain of Cytochrome P450 3A4 (P08684 whole entry): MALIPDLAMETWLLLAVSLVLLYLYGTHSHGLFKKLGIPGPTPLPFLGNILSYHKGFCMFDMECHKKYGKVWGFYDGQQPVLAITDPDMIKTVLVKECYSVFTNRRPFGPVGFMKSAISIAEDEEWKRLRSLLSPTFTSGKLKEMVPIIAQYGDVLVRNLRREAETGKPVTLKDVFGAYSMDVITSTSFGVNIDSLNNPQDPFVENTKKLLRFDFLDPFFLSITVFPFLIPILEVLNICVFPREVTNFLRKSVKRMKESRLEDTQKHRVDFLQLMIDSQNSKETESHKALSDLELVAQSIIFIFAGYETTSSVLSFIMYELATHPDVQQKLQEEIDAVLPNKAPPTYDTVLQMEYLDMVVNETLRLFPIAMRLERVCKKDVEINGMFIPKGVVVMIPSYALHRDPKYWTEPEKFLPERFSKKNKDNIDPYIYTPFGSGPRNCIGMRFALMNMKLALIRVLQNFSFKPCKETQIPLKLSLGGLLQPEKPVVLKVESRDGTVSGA
# Chain of Ephrin type-A receptor 4 (Q03137 whole entry): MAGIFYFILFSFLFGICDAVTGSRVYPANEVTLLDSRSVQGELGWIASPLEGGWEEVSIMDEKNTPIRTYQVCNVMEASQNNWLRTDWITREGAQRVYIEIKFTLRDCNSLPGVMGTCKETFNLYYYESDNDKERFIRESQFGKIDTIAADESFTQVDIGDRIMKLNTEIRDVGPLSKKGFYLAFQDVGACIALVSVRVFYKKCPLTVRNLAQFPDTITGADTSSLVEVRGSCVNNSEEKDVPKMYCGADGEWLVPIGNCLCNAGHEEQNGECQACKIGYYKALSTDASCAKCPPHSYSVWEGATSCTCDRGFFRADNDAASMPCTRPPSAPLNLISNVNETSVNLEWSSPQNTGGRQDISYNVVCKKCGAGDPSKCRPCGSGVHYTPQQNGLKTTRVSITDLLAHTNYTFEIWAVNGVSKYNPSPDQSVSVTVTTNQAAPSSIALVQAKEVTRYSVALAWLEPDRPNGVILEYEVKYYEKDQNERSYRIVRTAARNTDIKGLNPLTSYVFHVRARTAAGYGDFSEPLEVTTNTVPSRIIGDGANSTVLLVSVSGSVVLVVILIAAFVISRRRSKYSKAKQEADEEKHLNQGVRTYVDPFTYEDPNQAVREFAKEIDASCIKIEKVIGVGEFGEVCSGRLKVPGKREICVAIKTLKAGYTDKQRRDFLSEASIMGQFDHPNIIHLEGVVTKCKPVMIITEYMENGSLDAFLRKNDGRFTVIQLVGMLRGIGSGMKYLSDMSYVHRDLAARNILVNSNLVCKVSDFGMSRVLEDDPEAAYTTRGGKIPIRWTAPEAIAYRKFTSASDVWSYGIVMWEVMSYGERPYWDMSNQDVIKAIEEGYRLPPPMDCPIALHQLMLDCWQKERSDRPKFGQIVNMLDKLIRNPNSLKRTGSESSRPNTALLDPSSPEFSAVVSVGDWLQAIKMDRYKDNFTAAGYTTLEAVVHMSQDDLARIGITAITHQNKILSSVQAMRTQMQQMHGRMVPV
# Chain of Cytochrome P450 2D6 (P10635 whole entry): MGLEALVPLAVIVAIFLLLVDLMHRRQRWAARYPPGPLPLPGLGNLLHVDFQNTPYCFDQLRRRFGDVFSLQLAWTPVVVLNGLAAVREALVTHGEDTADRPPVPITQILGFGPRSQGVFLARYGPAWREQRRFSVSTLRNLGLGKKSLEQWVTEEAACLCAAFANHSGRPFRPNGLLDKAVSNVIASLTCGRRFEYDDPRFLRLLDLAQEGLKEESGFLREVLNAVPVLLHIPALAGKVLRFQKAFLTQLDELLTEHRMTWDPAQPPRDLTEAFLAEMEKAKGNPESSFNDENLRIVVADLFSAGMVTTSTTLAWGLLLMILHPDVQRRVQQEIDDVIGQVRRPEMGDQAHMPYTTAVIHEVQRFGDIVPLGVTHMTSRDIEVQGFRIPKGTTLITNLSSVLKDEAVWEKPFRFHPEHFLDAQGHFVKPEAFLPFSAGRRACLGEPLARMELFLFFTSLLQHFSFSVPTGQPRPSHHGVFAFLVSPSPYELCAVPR
structure (smiles),measurement,setting,value
O=C(NCc1ccc(Cl)cc1)c1ccccc1Oc1ccccc1,IC50,[1],> 100 µM (active)
Cc1cc(C)c2nc(NNC(=O)c3ccc(S(=O)(=O)N4CCCCC4)cc3)sc2c1,EC50,Streptococcus,4.91 µM (active)
same,IC50,[2],19 µM (inactive)
same,EC50,[3],1.92 µM (active)
CC(=O)c1ccc(NC(=O)c2noc3c2CCC3)cc1,AC50,[4],2.77 µM (active)
same,AC50,HEK293,1.92 µM (active)
same,AC50,[5],3.68 µM (active)
same,AC50,[6],> 52 µM (inactive)
COc1cc(CN(CCN(C)C)Cc2ccccc2)ccc1OCc1ccccc1,IC50,[7],> 96.6 µM (inactive)
CC(=O)OC1(c2ccc(C)cc2)CN2CCC1c1ccccc12 (configuration not stated),IC50,Ephrin type-A receptor 4,> 100 µM (not active)
COCCn1c(C)cc(C(=O)CSc2nnc3ccccn23)c1C,EC50,[8],< 0.2 µM (active)
same,AC50,[4],4.03 µM (active)
same,AC50,HEK293,2.88 µM (active)
same,EC50,HT-1080,> 50 µM (not active)
same,AC50,[5],3.66 µM (active)
same,AC50,[6],> 52 µM (inactive)
COc1ccc(N2CCN(C(=O)CCCn3c(=O)[nH]c4ccsc4c3=O)CC2)cc1,IC50,Estrogen receptor beta,> 50 µM (not active)
S=C(Nc1cccc(Cl)c1)NC1CCCCC1,AC50,Cytochrome P450 2D6,44.7 µM (inconclusive)
same,IC50,[1],> 100 µM (active)
same,AC50,Cytochrome P450 3A4,15.8 µM (inconclusive)
same,AC50,Cytochrome P450 1A2,17.8 µM (inconclusive)
COc1cc(NC(=O)c2cccs2)c(C(=O)OCC(=O)NC(=O)NC(C)(C)C)cc1OC,IC50,Estrogen receptor beta,> 50 µM (not active)
